{"source": "patent US11053204B2", "about": "“Pyrimidinyloxy benzene derivatives as herbicides” (FMC Corporation, priority 2015, dated 2021)", "assay_type_in_all_cases": "in vivo", "key": {"[1]": {"system": "Italian ryegrass (Lolium multiflorum)", "assay": "Test A preemergence, visual injury rating", "details": "0 to 100 scale (0 no effect, 100 complete control)", "procedure,_shortened": "(§1)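 Injury scores run from 0, no effect, to 100, complete control, judged by eye against untreated plants roughly 10 days after treatment. Chemicals carried a surfactant in a non-phytotoxic solvent and went onto loam–sand soil preemergence or onto one- to two-leaf seedlings postemergence.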"}, "[2]": {"system": "barnyardgrass (Echinochloa crus-galli)", "assay": "Test A preemergence, visual injury rating", "details": "0 to 100 scale (0 no effect, 100 complete control)", "procedure,_shortened": "as §1"}, "[3]": {"system": "giant foxtail (Setaria faberii)", "assay": "Test A preemergence, visual injury rating", "details": "0 to 100 scale (0 no effect, 100 complete control)", "procedure,_shortened": "as §1"}, "[4]": {"system": "ragweed (common ragweed, Ambrosia elatior)", "assay": "Test A preemergence, visual injury rating", "details": "0 to 100 scale (0 no effect, 100 complete control)", "procedure,_shortened": "as §1"}, "[5]": {"system": "blackgrass (Alopecurus myosuroides)", "assay": "Test C preemergence, plant response rating", "details": "Preemergence", "procedure,_shortened": "(§2)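 Visual injury score, 0 = no effect, 100 = complete control, assigned against untreated controls after 13 to 15 d in the greenhouse. Compounds were applied in a surfactant-containing non-phytotoxic solvent mix, preemergence to seeded loam/sand or silt loam soil, or postemergence to 1- to 4-leaf plants (2 to 18 cm).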"}, "corn (Zea mays)": {"system": "corn (Zea mays)", "assay": "Test C preemergence, plant response rating", "details": "Preemergence", "procedure,_shortened": "as §2"}, "[6]": {"system": "crabgrass, large (large crabgrass, Digitaria sanguinalis)", "assay": "Test C preemergence, plant response rating", "details": "Preemergence", "procedure,_shortened": "as §2"}, "[7]": {"system": "foxtail, giant (giant foxtail, Setaria faberii)", "assay": "Test C preemergence, plant response rating", "details": "Preemergence", "procedure,_shortened": "as §2"}, "[8]": {"system": "lambsquarters (Chenopodium album)", "assay": "Test C preemergence, plant response rating", "details": "Preemergence", "procedure,_shortened": "as §2"}, "[9]": {"system": "morningglory (Ipomoea coccinea)", "assay": "Test C preemergence, plant response rating", "details": "Preemergence", "procedure,_shortened": "as §2"}, "[10]": {"system": "nutsedge, yellow (yellow nutsedge, Cyperus esculentus)", "assay": "Test C preemergence, plant response rating", "details": "Preemergence", "procedure,_shortened": "as §2"}, "[11]": {"system": "oilseed rape (Brassica napus)", "assay": "Test C preemergence, plant response rating", "details": "Preemergence", "procedure,_shortened": "as §2"}, "[12]": {"system": "ragweed (common ragweed, Ambrosia elatior)", "assay": "Test C preemergence, plant response rating", "details": "Preemergence", "procedure,_shortened": "as §2"}, "[13]": {"system": "ryegrass, Italian (Italian ryegrass, Lolium multiflorum)", "assay": "Test C preemergence, plant response rating", "details": "Preemergence", "procedure,_shortened": "as §2"}, "soybean (Glycine max)": {"system": "soybean (Glycine max)", "assay": "Test C preemergence, plant response rating", "details": "Preemergence", "procedure,_shortened": "as §2"}, "[14]": {"system": "velvetleaf (Abutilon theophrasti)", "assay": "Test C preemergence, plant response rating", "details": "Preemergence", "procedure,_shortened": "as §2"}, "[15]": {"system": "waterhemp (common waterhemp, Amaranthus rudis)", "assay": "Test C preemergence, plant response rating", "details": "Preemergence", "procedure,_shortened": "as §2"}, "[16]": {"system": "wheat (winter wheat, Triticum aestivum)", "assay": "Test C preemergence, plant response rating", "details": "Preemergence", "procedure,_shortened": "as §2"}}, "data": [{"compound": "CCCCC(=O)c1c(Oc2ncc(Cl)cn2)cccc1C(F)(F)F", "note": "[Compound 130]", "values": [{"measurement": "Plant response rating, Ryegrass, Italian", "setting": "[1]; 125 g ai/ha", "value": 80}, {"measurement": "Ryegrass, Italian plant response rating", "setting": "[1]; 500 g ai/ha", "value": 100}, {"measurement": "Plant response rating, Barnyardgrass", "setting": "[2]; 125 g ai/ha", "value": 100}, {"measurement": "Barnyardgrass plant response rating", "setting": "[2]; 500 g ai/ha", "value": 100}, {"measurement": "Plant response rating, Foxtail, Giant", "setting": "[3]; 125 g ai/ha", "value": 100}, {"measurement": "Foxtail, Giant plant response rating", "setting": "[3]; 500 g ai/ha", "value": 100}, {"measurement": "Plant response rating, Ragweed", "setting": "[4]; 125 g ai/ha", "value": 20}, {"measurement": "Ragweed plant response rating", "setting": "[4]; 500 g ai/ha", "value": 90}, {"measurement": "Plant response rating, Blackgrass", "setting": "[5]; 125 g ai/ha, scale of 0 to 100", "value": 85}, {"measurement": "Plant response rating, Blackgrass", "setting": "[5]; 16 g ai/ha, scale 0 to 100", "value": 30}, {"measurement": "Plant response rating, Blackgrass", "setting": "[5]; 31 g ai/ha, scale 0 to 100", "value": 30}, {"measurement": "Plant response rating, Blackgrass", "setting": "[5]; 62 g ai/ha, scale 0 to 100", "value": 60}, {"measurement": "Plant response rating, Corn", "setting": "corn (Zea mays); 125 g ai/ha, scale of 0 to 100", "value": 25}, {"measurement": "Plant response rating, Corn", "setting": "corn (Zea mays); 16 g ai/ha, scale 0 to 100", "value": 5}, {"measurement": "Plant response rating, Corn", "setting": "corn (Zea mays); 31 g ai/ha, scale 0 to 100", "value": 0}, {"measurement": "Plant response rating, Corn", "setting": "corn (Zea mays); 62 g ai/ha, scale 0 to 100", "value": 5}, {"measurement": "Plant response rating, Crabgrass, Large", "setting": "[6]; 125 g ai/ha, scale of 0 to 100", "value": 100}, {"measurement": "Plant response rating, Crabgrass, Large", "setting": "[6]; 16 g ai/ha, scale 0 to 100", "value": 98}, {"measurement": "Plant response rating, Crabgrass, Large", "setting": "[6]; 31 g ai/ha, scale 0 to 100", "value": 100}, {"measurement": "Plant response rating, Crabgrass, Large", "setting": "[6]; 62 g ai/ha, scale 0 to 100", "value": 100}, {"measurement": "Plant response rating, Foxtail, Giant", "setting": "[7]; 125 g ai/ha, scale of 0 to 100", "value": 100}, {"measurement": "Plant response rating, Foxtail, Giant", "setting": "[7]; 31 g ai/ha, scale 0 to 100", "value": 70}, {"measurement": "Plant response rating, Foxtail, Giant", "setting": "[7]; 62 g ai/ha, scale 0 to 100", "value": 98}, {"measurement": "Plant response rating, Lambsquarters", "setting": "[8]; 125 g ai/ha, scale of 0 to 100", "value": 95}, {"measurement": "Plant response rating, Lambsquarters", "setting": "[8]; 31 g ai/ha, scale 0 to 100", "value": 30}, {"measurement": "Plant response rating, Lambsquarters", "setting": "[8]; 62 g ai/ha, scale 0 to 100", "value": 35}, {"measurement": "Plant response rating, Morningglory", "setting": "[9]; 125 g ai/ha, scale of 0 to 100", "value": 10}, {"measurement": "Plant response rating, Morningglory", "setting": "[9]; 31 g ai/ha, scale 0 to 100", "value": 5}, {"measurement": "Plant response rating, Morningglory", "setting": "[9]; 62 g ai/ha, scale 0 to 100", "value": 20}, {"measurement": "Plant response rating, Nutsedge, Yellow", "setting": "[10]; 125 g ai/ha, scale of 0 to 100", "value": 0}, {"measurement": "Plant response rating, Nutsedge, Yellow", "setting": "[10]; 31 g ai/ha, scale 0 to 100", "value": 0}, {"measurement": "Plant response rating, Nutsedge, Yellow", "setting": "[10]; 62 g ai/ha, scale 0 to 100", "value": 0}, {"measurement": "Plant response rating, Oilseed Rape", "setting": "[11]; 125 g ai/ha, scale of 0 to 100", "value": 95}, {"measurement": "Plant response rating, Oilseed Rape", "setting": "[11]; 31 g ai/ha, scale 0 to 100", "value": 10}, {"measurement": "Plant response rating, Oilseed Rape", "setting": "[11]; 62 g ai/ha, scale 0 to 100", "value": 40}, {"measurement": "Plant response rating, Ragweed", "setting": "[12]; 125 g ai/ha, scale of 0 to 100", "value": 10}, {"measurement": "Plant response rating, Ragweed", "setting": "[12]; 31 g ai/ha, scale 0 to 100", "value": 0}, {"measurement": "Plant response rating, Ragweed", "setting": "[12]; 62 g ai/ha, scale 0 to 100", "value": 5}, {"measurement": "Plant response rating, Ryegrass, Italian", "setting": "[13]; 125 g ai/ha, scale of 0 to 100", "value": 70}, {"measurement": "Plant response rating, Ryegrass, Italian", "setting": "[13]; 31 g ai/ha, scale 0 to 100", "value": 35}, {"measurement": "Plant response rating, Ryegrass, Italian", "setting": "[13]; 62 g ai/ha, scale 0 to 100", "value": 60}, {"measurement": "Plant response rating, Soybean", "setting": "soybean (Glycine max); 125 g ai/ha, scale of 0 to 100", "value": 30}, {"measurement": "Plant response rating, Soybean", "setting": "soybean (Glycine max); 31 g ai/ha, scale 0 to 100", "value": 0}, {"measurement": "Plant response rating, Soybean", "setting": "soybean (Glycine max); 62 g ai/ha, scale 0 to 100", "value": 10}, {"measurement": "Plant response rating, Velvetleaf", "setting": "[14]; 125 g ai/ha, scale of 0 to 100", "value": 85}, {"measurement": "Plant response rating, Velvetleaf", "setting": "[14]; 31 g ai/ha, scale 0 to 100", "value": 10}, {"measurement": "Plant response rating, Velvetleaf", "setting": "[14]; 62 g ai/ha, scale 0 to 100", "value": 75}, {"measurement": "Plant response rating, Waterhemp", "setting": "[15]; 125 g ai/ha, scale of 0 to 100", "value": 100}, {"measurement": "Plant response rating, Waterhemp", "setting": "[15]; 31 g ai/ha, scale 0 to 100", "value": 100}, {"measurement": "Plant response rating, Waterhemp", "setting": "[15]; 62 g ai/ha, scale 0 to 100", "value": 100}, {"measurement": "Plant response rating, Wheat", "setting": "[16]; 125 g ai/ha, scale of 0 to 100", "value": 0}, {"measurement": "Plant response rating, Wheat", "setting": "[16]; 31 g ai/ha, scale 0 to 100", "value": 0}, {"measurement": "Plant response rating, Wheat", "setting": "[16]; 62 g ai/ha, scale 0 to 100", "value": 5}]}]}
